Data: patent publication US20030138856A1, “Process for the measurement of dinophysistoxin and yessotoxin” (priority 2000, published 2003)

System: E-cadherin and related antigens ECRA100 and ECRA135 in MCF-7 cells
Assay: E-cadherin, ECRA135 and ECRA100 levels in cytosoluble extracts of toxin-treated MCF-7 cells (SDS-PAGE, anti-E-cadherin immunoblotting, densitometry)
Type: cell-based, human
Settings: for pattern of E-cadherin and related antigens on immunoblot (FIG. 1): 50 nM each agent, 18 hr at 37° C.; for concentration above which the pattern characteristic for each group of toxins is maintained when the two groups are present at the same time: both toxins together in the cell culture
Protocol: The MCF-7 cell line employed in these experiments has been obtained from the European Collection of Cell Cultures (ECACC No: 86012803; CB No: CB2705). Cells have been maintained at 37° C. in an atmosphere containing 5% CO2 in Petri dishes, in a culture medium composed of Dulbecco's modified MEM, containing foetal bovine serum (10%), nonessential aminoacids (1%) and 2 mM glutamine. Cell treatments have been carried out by adding appropriate aliquots of toxins from stock solutions prepared with absolute ethanol, and control cultures received an identical volume of vehicle. Working solutions of the different agents were obtained by serial dilutions of stock solutions, represented by 50 μM okadaic acid and 500 μM yessotoxin, respectively, and were stored at −20° C., in glass vials, protected from light. The ethanol concentrations in culture media has never been higher than 0.5% (v/v), which represents a concentration uncapable to affect the molecular parameters measured in these experiments.
The cellular extracts employed in the present analyses have been obtained from the cells adhering to culture vessels at the end of the indicated treatments, and the procedure was carried out at 4° C. Cells were washed three times with 20 mM phosphate buffer, pH 7.4, containing 0.15 M NaCl (PBS) and were then lysed by the addition of 25 μl of lysis buffer/cm^2 of culture surface area, and by keeping cells in contact with this solution for 10 minutes at 4° C. The lysis buffer was composed of PBS, containing: 0.5% (w/v) Na deoxycholate, 0.1% (w/v) Na dodecylsulfate (SDS), 1% (v/v) Triton X-100, 0.1 mg/ml phenylmethyl sulfonyl fluoride (PMSF). Cellular lysates were then centrifuged for 30 minutes at 16000 xg, and the supernatants of this centrifugation (cytosoluble extracts) were recovered and used to measure their total protein content by a […] method, using bicinchoninic acid (Smith P. K et al., 1985, Anal. Biochem., 150:76). Cytosoluble extracts were then brought to a final 2% SDS, 5% β-mercaptoethanol and 20% glycerol concentration, and were treated for 5 min at 100° C., before being used for protein fractionation by electrophoresis.
Samples, usually containing the same amount of protein, corresponding to about 50 μg, were subjected to polyacrylamide gel electrophoresis in the presence of SDS, according to the procedure by Laemmli (Laemmli U. K. , 1970, Nature, 227:680), using separating gels containing 10% acrylamide monomer. At the end of the electrophoresis (running time about 3 hr at 170 Volts), proteins were electrophoretically transferred to a nitrocellulose membrane (Protran B83), and were then stained with Ponceau S.
Aspecific binding sites on the membrane were then saturated by a 1 hr incubation at room temperature with a solution composed of 20 mM Tris-HCl, pH 7.5 at 25° C., 150 mM NaCl (TBS), containing 3% (w/v) low fat dry milk and 1 mM CaCl2. The membrane was then incubated with TBS containing 1 % (w/v) low fat dry milk, 1 mM CaCl2, and 2 μg of anti-E-cadherin antibody/ml buffer, for 1 hr at room temperature. At the end of the incubation the membrane was washed four times for 5 min and then a fifth time for 10 min with TBS containing 0.05% (w/v) Tween 20 (TBS-Tween buffer). The membrane was then incubated with TBS-Tween containing 1% (w/v) low fat dry milk and secondary antibody (horse radish peroxydase conjugated anti-mouse Ig antibody) at a 1:3000 dilution, for 1 hr at room temperature. At the end of this incubation, the membrane was washed as previously described, and the antigens were then detected by the ECL procedure and autoradiography, using Kodak X-Omat films. The electropherogram was then subjected to densitometric scanning, and the absorbance measured from the peak area was recorded and used to quantify the detected antigens. […]

[1] = MCF-7 cells treated with 50 nM OA
[2] = MCF-7 cells, YTX 1 μM, 24 hr incubation, n=4

C=C1[C@@H](O)[C@@H]2O[C@]3(CC[C@H](/C=C/[C@@H](C)[C@@H]4CC(C)=C[C@@]5(O[C@H](C[C@@](C)(O)C(=O)O)CC[C@H]5O)O4)O3)CC[C@H]2O[C@@H]1[C@@H](O)C[C@H](C)[C@H]1O[C@@]2(CCCCO2)CC[C@H]1C [OA, okadaic acid]
E-cadherin, % of total immunoreactivity [1]: 77.6±12.3%
ECRA100, % of total immunoreactivity [1]: 1.8±3.1%
ECRA135, % of total immunoreactivity [1]: 20.6±9.6%
relative total immunoreactivity (Σ), % of that in extracts from control cells [1]: 15.4±8.7%
pattern of E-cadherin and related antigens on immunoblot (FIG. 1) (MCF-7 cells): appearance of ECRA135
OA concentration at which ECRA100 levels are minimal (MCF-7 cells, 20 hr): higher than 50 nM
OA concentration at which ECRA135 level is maximal (MCF-7 cells, 20 hr): 75 nM
OA concentration at which detection of ECRA135 starts (MCF-7 cells, 20 hr): 20 to 30 nM
OA concentration at which the decrease in immunoreactive material (Σ) can be detected (MCF-7 cells, 20 hr): higher than 10 nM
OA concentration at which the decrease in immunoreactive material (Σ) is maximal (MCF-7 cells, 20 hr): higher than 75 nM
equivalent OA concentrations within which proportionality in the assay is kept (MCF-7 cells, 20 hr): 30 to 75 nM
equivalent OA concentrations within which proportionality in the assay is kept, as mass concentration (MCF-7 cells, 20 hr, corresponding to 30-75 nM): 25-60 ng OA/ml
concentration above which the pattern characteristic for each group of toxins is maintained when the two groups are present at the same time: higher than 35 nM

C=CCC(=C)/C=C/[C@@](C)(O)[C@H]1O[C@@H]2C[C@@H]3O[C@@H]4C[C@@H]5O[C@@H]6C[C@@H]7O[C@@H]8C[C@@H]9O[C@@H]%10C[C@@H]%11O[C@](C)(CCOS(=O)(=O)O)[C@@H](OS(=O)(=O)O)C[C@H]%11O[C@H]%10C[C@H]9O[C@H]8CC[C@@]7(C)O[C@@]6(C)CC[C@H](C)[C@H]5O[C@H]4C[C@@]3(C)O[C@H]2CC1=C [YTX, yessotoxin]
ECRA135 detection after treatment with YTX alone (MCF-7 cells): never been detected
pattern of E-cadherin and related antigens on immunoblot (FIG. 1) (MCF-7 cells): most immunoreactivity is associated with the 100 kDa (101.9±3.2 kDa) band
YTX concentration at which the increase in immunoreactive material (Σ) is detectable (MCF-7 cells, 20 hr): about 0.2 nM
YTX concentration at which the increase in immunoreactive material reaches maximal levels (MCF-7 cells, 20 hr): ≥ 1 nM
equivalent YTX concentrations within which proportionality in the assay is maintained, as mass concentration (MCF-7 cells, 20 hr, corresponding to 0.2-0.5 nM): 240-600 pg YTX/ml
ECRA135 detection (MCF-7 cells, YTX 1 μM, 24 hr incubation): undetectable
E-cadherin, share of total immunoreactivity [2]: 52.0±1.7
ECRA100, share of total immunoreactivity [2]: 48.0±1.7
relative total immunoreactivity (Σ), as compared to controls [2]: 190±32%
E-cadherin level, percentage of total immunoreactivity (E-cadherin+ECRA100+ECRA135) of the sample ([YTX] ≧0.5 nME/[DTX] <25 nME): 40-60%
ECRA100 level, percentage of total immunoreactivity of the sample ([YTX] ≧0.5 nME/[DTX] <25 nME): 40-60%
relative total immunoreactivity (Σ), percentage of total immunoreactivity in the controls ([YTX] ≧0.5 nME/[DTX] <25 nME): 150-250%
concentration above which the pattern characteristic for each group of toxins is maintained when the two groups are present at the same time: > 0.4 nM
